Test results published in EP0430485A2, “Quinoline compound” (priority 1989, dated 1991).
Where a name gives a salt, the structure may show the parent alone.

What follows are compounds tested on scopolamine-induced amnesia. Conditions: rat, in vivo.
Type: in vivo, Wistar male rats
Description: In order to show effects of the compounds according to the present invention in more detail, a part of experimental examples relating to action against scopolamine-induced amnesia for step-through passive avoidance response in rats is shown below.
Wistar male rats of 7 to 8 weeks old were used to experiment after fasting for 12 hours. Rats were divided into groups with 8 rats per group and 1.5 mg/kg of scopolamine was intraperitoneally administered. After 30 minutes from the administration, rats were placed in a light compartment of a step-through type passive avoidance apparatus constituted by two compartments (25 × 10 × 25 cm of a light compartment and 30 × 30 × 30 cm of a dark compartment having a guillotine door and a floor grid for passing current) and a latent time by entering into a dark compartment was measured. The guillotine door was shut when a rat entered into the dark compartment and shock with 0.6 mA for 3 seconds was applied through the floor grid for acquisition trial. After acquisition trial, 10 mg/kg of each test compound was orally administered to rats and returned to their home cage. After 24 hours, rats were again placed in the light compartment at which the guillotine door was opened, a latent time by entering into the dark compartment was measured whereby presence or absence of improved effect of memory retention was judged.

| Compound | Latent time of memory retention |
| --- | --- |
| Nc1c2c(nc3ccccc13)CCCC2 [Tacrine, 9-amino-1,2,3,4-tetrahydroacridine, reference compound] | 58 s |

Same assay, conditions: rats, scopolamine 1.5 mg/kg intraperitoneally; test compound 10 mg/kg p.o. after acquisition trial; latent time by entering the dark compartment measured after 24 hours; 8 rats per group

| Compound | Latent time of memory retention |
| --- | --- |
| 4-Amino-5-fluoro-1-isoamyl-2,3-dihydro-1H-pyrrolo[2,3-b]quinoline·trihydrate [Example 33] | 151 s |
| CN1CCc2c1nc1ccccc1c2N [Example 1, 4-amino-1-methyl-2,3-dihydro-1H-pyrrolo[2,3-b] quinoline] | 128 s |
| CCCCCCCCCCCCN1CCCCc2c1nc1cccc(F)c1c2N [Example 3, 6-amino-1-dodecyl-7-fluoro-2,3,4,5-tetrahydro-1H-azepino[2,3-b]quinoline] | 140 s |
| Nc1c2c(nc3ccccc13)N(Cc1ccccc1)CCCC2 [Example 10, 6-Amino-1-benzyl-2,3,4,5-tetrahydro-1H-azepino[2,3-b]-quinoline·hydrochloride] | 188 s |
| Nc1c2c(nc3cccc(Cl)c13)N(Cc1ccccc1)CCCC2 [Example 11, 6-Amino-1-benzyl-7-chloro-2,3,4,5-tetrahydro-1H-azepino[2,3-b]quinoline·hydrochloride] | 163 s |
| Nc1c2c(nc3cccc(F)c13)NCCC2 [Example 20, 5-amino-6-fluoro-1,2,3,4-tetrahydrobenzo[d] [1,8]naphthylidine] | 59 s |
| Nc1c2c(nc3cccc(Cl)c13)NCCC2 [Example 21, 5-amino-6-chloro-1,2,3,4-tetrahydrobenzo[b] [1,8]naphthylidine] | 117 s |
| Nc1c2c(nc3ccccc13)NCC2 [Example 22, 4-Amino-2,3-dihydro-1H-pyrrolo[2,3-b]quinoline·hydrobromide] | 78 s |
| CC(=O)N1CCCc2c1nc1cccc(F)c1c2N [Example 24, 1-acetyl-5-amino-6-fluoro-1,2,3,4-tetrahydrobenzo[b] [1,8]naphthylidine] | 168 s |
| Nc1c2c(nc3cccc(F)c13)N(C(=O)c1ccccc1)CCC2 [Example 26] | 84 s |
| Nc1c2c(nc3cc(Cl)ccc13)NCCC2 [Example 31, 5-Amino-8-chloro-1,2,3,4-tetrahydrobenzo[b] [1,8]naphthylidine] | 72 s |
